Legend:
[1] = test system: Pgp/MDR1; assay: Hepatic and intestinal Pgp/MDR1 protein expression (immunoblot); type: in vivo, rats
Protocol: (§1) The animals were categorized into four groups (n = 6) and fasted for 12 h before the experiment. […] orally administered with normal saline for 7 days and Group II was orally administered DAS (25 mg/kg) on the 7th day. Group III was co-administered DAS with APG for 7 days and DAS (25 mg/kg p.o.) on the 7th day, 2 h after APG 40 mg/kg administration, and Group IV was administered with APG 40 mg/kg for 7 days. The blood was collected from the tail vein at various time points after DAS administration and subjected to centrifugation at 5000× g for 10 min to obtain plasma for DAS quantification using ultra pressure liquid chromatography with mass. At the end of the experiment, all animals were euthanized using carbon dioxide, and liver and intestine tissues were harvested and for Western blotting.
(§2) A PierceTM BCA Protein Assay Kit (Thermo Fisher Scientific) was used to extract the total protein from the hepatic and intestinal tissues by bicinchoninic acid technique. Immunoblots were executed as per the methods of Towbin et al. (1979) with slight modification. Briefly, 10% SDS polyacrylamide gels were used to electrophorese 25 μg of hepatic and intestinal epithelial proteins. These proteins were then transferred to activated PVDF membranes and blocked with 4% skim milk and BSA in TBST. After that, membranes were treated with antibodies for CYP3A2 isozymes, active transporters P-glycoprotein/MDR1, BCRP/ABCG2, and β-actin protein expression for an overnight period (4 °C). The membrane strips were incubated with the suitable secondary antibodies for 2 h after repeated washing steps with 1% TBST and TBS (room temperature). The membrane strips were then washed four times with TBST for five minutes each time. Bands were developed using Luminata™ Western Chemiluminescent HRP Substrates (Millipore), followed by densitometric evaluation of the immunoblots.

[2] = test system: BCRP/ABCG2; assay: Hepatic and intestinal BCRP/ABCG2 protein expression (immunoblot); type: in vivo, rats
Protocol: as §1, §2

[3] = test system: CYP3A2; assay: Hepatic and intestinal CYP3A2 protein expression (immunoblot); type: in vivo, rats
Protocol: as §1, §2

[4] = Pharmacokinetics of oral DAS in rats with or without APG pretreatment (UPLC-MS/MS, non-compartmental); type: in vivo; conditions: DAS in rat plasma, DAS 25 mg/kg p.o., alone or after APG 40 mg/kg p.o. for 7 days, mean ± SD
Protocol: The Central Animal House facility of College of Pharmacy, King Saud University’s, Riyadh, Saudi Arabia, provided 24 healthy adult male Wistar rats (weighing 211–223 g), and the experiment was authorized by the Animal Ethics Committee of the College of Pharmacy, King Saud University (KSU-SE-21-58). All animals were retained in polypropylene cages: 6 animals were caged (n = 6) per cage with a 12-h light/dark cycle, at 25 °C in humane conditions with free access to food and water and adapted to the living conditions one week prior to experiment
as §1
Using UHPLC-MS/MS, DAS concentrations in rat plasma samples were determined. A mixture of DAS and IBR (internal standard) was separated on an Acquity BEH C18 column, and both compounds were eluted at a flow rate of 0.25 mL/min from a mobile phase consisting of acetonitrile, 0.1% formic acid, and 20mM ammonium acetate (95:5). The entire duration of the study was about 2.5 min. The auto-sampler was kept at 10 °C, while the column oven was kept at a constant 40 °C. Electrospray ionization was used to ionize samples in a positive direction. […] Multiple reaction monitoring (MRM) mode detection and quantitation of analyte (DAS) and IS (IBR) employed the precursor to product ion transition of 488.06 and gt; 401.1 and 441.16 and gt; 84.04, respectively. Capillary voltage was 3.4 kV, source temperature was 150 °C, and desolvation temperature was 350 °C for optimum sample ionization using MS/MS. A flow rate of 600 L/h of nitrogen gas was utilized for the desolvation process, whereas a flow rate of 0.18 mL/min of argon gas was used for the collision process. The analyte and IS cone voltages were 46 V and 48 V, and the collision energy was 28 eV and 40 eV, respectively. Precision and accuracy were partially confirmed for the assay using the “US Food and Drug Administration 2018 guideline for bioanalytical technique validation,” and found to be within acceptable ranges of 15% both intra- and inter-day. The samples were acquired using Masslynx 4.1 SCN 805, and then processed using TargetLynks. After making a few modifications to a previously reported study, it was put to use.
A plasma sample of 150 µL was aliquoted into an Eppendorf tube, along with 20 µL of a spiked internal standard (250 ng/mL), and 1 mL of ethyl acetate was also added for the extraction phase. For 10 min at 4 °C and 10,500 rpm, centrifuged samples were shaken for 15 min after being vortexed. Finally, 800 µL of the organic upper layer were transferred to an Eppendorf tube and dried in a sample concentrator at room temperature. Following reconstitution with 150 µL of acetonitrile, the dried residue was transported to UHPLC-MS/MS for 5 µL of analysis.
PK Solver software was employed to calculate the pharmacokinetic parameters using non-compartmental model. The calculated parameters were as follows: half-life (T1/2), elimination rate constant (Kel), time to maximum concentration (Tmax), the maximum concentration (Cmax), area under concentration time curve (AUC), the area under the moment curve (AUMC); the volume of distribution (Vd), the mean residence time (MRT), and clearance (Cl) were examined.

[5] = intestine, APG 40 mg/kg only pretreatment vs normal rats
[6] = liver, APG 40 mg/kg only pretreatment vs normal rats
[7] = intestine, DAS peroral vs normal rats
[8] = liver, DAS peroral vs normal rats

SMILES: O=c1cc(-c2ccc(O)cc2)oc2cc(O)cc(O)c12 [APG, 4′,5,7-trihydroxyflavone]
- inhibition of intestinal Pgp/MDR1 protein expression [1, 5]: 87.84%
- inhibition of hepatic Pgp/MDR1 protein expression [1, 6]: 90.67%
- inhibition of intestinal BCRP/ABCG2 protein expression [2, 5]: 91.50%
- inhibition of hepatic BCRP/ABCG2 protein expression [2, 6]: 91.05%
- inhibition of intestinal CYP3A2 protein expression [3, 5]: 90.97%
- inhibition of hepatic CYP3A2 protein expression [3, 6]: 87.24%

SMILES: Cc1nc(Nc2ncc(C(=O)Nc3c(C)cccc3Cl)s2)cc(N2CCN(CCO)CC2)n1 [DAS, Dasatinib]
- induction of intestinal Pgp/MDR1 protein expression [1, 7]: 91.65%
- induction of hepatic Pgp/MDR1 protein expression [1, 8]: 93.08%
- induction of intestinal BCPR/ABCG2 protein expression [2, 7]: 95.66%
- induction of hepatic BCPR/ABCG2 protein expression [2, 8]: 92.55%
- increase of intestinal CYP3A2 protein expression ([3]; intestine, DAS administered rats vs normal control rats): 79.13%
- AUC0-t [4]: 1635.84 ± 45.29 ng·h/mL
- AUMC0-inf_obs [4]: 16200.10 ± 1656.57 ng/mL × h^2
- Cl [4]: 0.012 ± 0.0005 (mg/kg)/(ng/mL)/h
- Cmax [4]: 263.06 ± 12.33 ng/mL
- Vd [4]: 0.087 ± 0.005 (mg/kg)/(ng/mL)
- Tmax ([4]; male, Wistar, po): 1 h
- half-life ([4]; male, Wistar, po): 4.97 ± 0.48 h
- k el ([4]; male, Wistar, po): 3.89e-05 s⁻¹
- AUC(0-inf) ([4]; male, Wistar, po, read-out: AUC0-inf_obs): 2060 ± 97 ng·h/mL
- MRT inf ([4]; male, Wistar, po, read-out: MRT 0-inf_obs): 7.84 ± 0.46 h
